Laboratory results taken from patent US20250136576A1, “Heterocyclic Compounds and Uses Thereof” (ACEA Therapeutics, Inc., priority 2021, published 2025).

Test system: KM12-luc cells
Assay: Cell proliferation and growth inhibition assay (CCK-8) in KM12-luc
Format: cell-based
Settings: KM12-Luc, 72 h, KM12-luc cells, treated with test compounds for 72 hrs, CCK-8 viability; read-out: NTRK IC50 in KM12-luc
How it was run: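 Cells were grown at 37 °C, 5% CO2 with 10% FBS: MV-4-11 in IMDM, H1975 in RPMI 1640, KM12-luc in DMEM. Viability was read by CCK-8 (1-4 hrs reagent incubation, absorbance at OD450). IC50 came from a non-linear sigmoidal dose-response fit.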

Structure (SMILES) | IC50
CC(=O)Nc1cc(Nc2ncc(C(F)(F)F)c(-c3c[nH]c4ccc(F)cc34)n2)ccc1N(C)CCN(C)C [Compound 321, N-(2-((2-(dimethylamino)ethyl)(methyl)amino)-5-((4-(5-fluoro-1H-indol-3-yl)-5-(trifluoromethyl)pyrimidin-2-yl)amino)phenyl)acetamide] | 14.8 nM
CN(C)CCN(C)c1ccc(Nc2ncc(C(F)(F)F)c(-c3c[nH]c4ccc(F)cc34)n2)cc1N [Compound 322, N^1-(2-(dimethylamino)ethyl)-N^4-(4-(5-fluoro-1H-indol-3-yl)-5-(trifluoromethyl)pyrimidin-2-yl)-N^1-methylbenzene-1,2,4-triamine] | 8.3 nM
CCN(CCN(C)C)c1ccc(Nc2ncc(C(F)(F)F)c(-c3c[nH]c4ccc(F)cc34)n2)cc1NC(C)=O [Compound 323, N-(2-((2-(dimethylamino)ethyl)(ethyl)amino)-5-((4-(5-fluoro-1H-indol-3-yl)-5-(trifluoromethyl)pyrimidin-2-yl)amino)phenyl)acetamide] | 18.9 nM
CCN(CCN(C)C)c1ccc(Nc2ncc(C(F)(F)F)c(-c3c[nH]c4ccc(F)cc34)n2)cc1N [Compound 324, N^1-(2-(dimethylamino)ethyl)-N^1-ethyl-N^4-(4-(5-fluoro-1H-indol-3-yl)-5-(trifluoromethyl)pyrimidin-2-yl)benzene-1,2,4-triamine] | 17.5 nM
CC(=O)Nc1cc(Nc2ncc(C(F)(F)F)c(-c3cn(C)c4ccc(F)cc34)n2)ccc1N(C)CCN(C)C [Compound 325, N-(2-((2-(dimethylamino)ethyl)(methyl)amino)-5-((4-(5-fluoro-1-methyl-1H-indol-3-yl)-5-(trifluoromethyl)pyrimidin-2-yl)amino)phenyl)acetamide] | 39.4 nM
CN(C)CCN(C)c1ccc(Nc2ncc(C(F)(F)F)c(-c3cn(C)c4ccc(F)cc34)n2)cc1N [Compound 326, N^1-(2-(dimethylamino)ethyl)-N^4-(4-(5-fluoro-1-methyl-1H-indol-3-yl)-5-(trifluoromethyl)pyrimidin-2-yl)-N^1-methylbenzene-1,2,4-triamine] | 58.2 nM
CN(C)CCN(C)c1ccc(Nc2ncc(C(F)(F)F)c(-c3cn(C)c4ccc(F)cc34)n2)cc1NCC(F)(F)F [Compound 327, N^1-(2-(dimethylamino)ethyl)-N^4-(4-(5-fluoro-1-methyl-1H-indol-3-yl)-5-(trifluoromethyl)pyrimidin-2-yl)-N^1-methyl-N^2-(2,2,2-trifluoroethyl)benzene-1,2,4-triamine] | 260 nM
CC(=O)Nc1cc(Nc2ncc(C(F)(F)F)c(-c3c[nH]c4cc(F)ccc34)n2)ccc1N(C)CCN(C)C [Compound 328a, N-(2-((2-(dimethylamino)ethyl)(methyl)amino)-5-((4-(6-fluoro-1H-indol-3-yl)-5-(trifluoromethyl)pyrimidin-2-yl)amino)phenyl)acetamide] | 34.1 nM
CC(=O)Nc1cc(Nc2nc(-c3c[nH]c4cc(F)ccc34)ncc2C(F)(F)F)ccc1N(C)CCN(C)C [Compound 328b, N-(2-((2-(dimethylamino)ethyl)(methyl)amino)-5-((2-(6-fluoro-1H-indol-3-yl)-5-(trifluoromethyl)pyrimidin-4-yl)amino)phenyl)acetamide] | 2420 nM
CN(C)CCN(C)c1ccc(Nc2ncc(C(F)(F)F)c(-c3c[nH]c4cc(F)ccc34)n2)cc1N [Compound 329, N^1-(2-(dimethylamino)ethyl)-N^4-(4-(6-fluoro-1H-indol-3-yl)-5-(trifluoromethyl)pyrimidin-2-yl)-N^1-methylbenzene-1,2,4-triamine] | 72.1 nM
CCC(=O)Nc1cc(Nc2ncc(C(F)(F)F)c(-c3c[nH]c4cc(F)ccc34)n2)ccc1N(CC)CCN(C)C [Compound 330a, N-(2-((2-(dimethylamino)ethyl)(ethyl)amino)-5-((4-(6-fluoro-1H-indol-3-yl)-5-(trifluoromethyl)pyrimidin-2-yl)amino)phenyl)propionamide] | 292 nM
CCC(=O)Nc1cc(Nc2nc(-c3c[nH]c4cc(F)ccc34)ncc2C(F)(F)F)ccc1N(CC)CCN(C)C [Compound 330b, N-(2-((2-(dimethylamino)ethyl)(ethyl)amino)-5-((2-(6-fluoro-1H-indol-3-yl)-5-(trifluoromethyl)pyrimidin-4-yl)amino)phenyl)propionamide] | > 3330 nM
CCN(CCN(C)C)c1ccc(Nc2ncc(C(F)(F)F)c(-c3c[nH]c4cc(F)ccc34)n2)cc1NC(C)=O [Compound 331a, N-(2-((2-(dimethylamino)ethyl)(ethyl)amino)-5-((4-(6-fluoro-1H-indol-3-yl)-5-(trifluoromethyl)pyrimidin-2-yl)amino)phenyl)acetamide] | 32.3 nM
CCN(CCN(C)C)c1ccc(Nc2nc(-c3c[nH]c4cc(F)ccc34)ncc2C(F)(F)F)cc1NC(C)=O [Compound 331b, N-(2-((2-(dimethylamino)ethyl)(ethyl)amino)-5-((2-(6-fluoro-1H-indol-3-yl)-5-(trifluoromethyl)pyrimidin-4-yl)amino)phenyl)acetamide] | 2020 nM
CCN(CCN(C)C)c1ccc(Nc2ncc(C(F)(F)F)c(-c3c[nH]c4cc(F)ccc34)n2)cc1N [Compound 332, N^1-(2-(dimethylamino)ethyl)-N^1-ethyl-N^4-(4-(6-fluoro-1H-indol-3-yl)-5-(trifluoromethyl)pyrimidin-2-yl)benzene-1,2,4-triamine] | 127 nM
CC(=O)Nc1cc(Nc2ncc(C(F)(F)F)c(-c3cn(C)c4cc(F)ccc34)n2)ccc1N(C)CCN(C)C [Compound 333, N-(2-((2-(dimethylamino)ethyl)(methyl)amino)-5-((4-(6-fluoro-1-methyl-1H-indol-3-yl)-5-(trifluoromethyl)pyrimidin-2-yl)amino)phenyl)acetamide] | 28.5 nM
CCN(CCN(C)C)c1ccc(Nc2ncc(C(F)(F)F)c(-c3c[nH]c4c(F)cccc34)n2)cc1NC(C)=O [Compound 336, N-(2-((2-(dimethylamino)ethyl)(ethyl)amino)-5-((4-(7-fluoro-1H-indol-3-yl)-5-(trifluoromethyl)pyrimidin-2-yl)amino)phenyl)acetamide] | 64.8 nM
CN(C)CCN(C)c1cc(F)c(Nc2ncc(C(F)(F)F)c(-c3c[nH]c4c(F)cccc34)n2)cc1N [Compound 339, N^1-(2-(dimethylamino)ethyl)-5-fluoro-N^4-(4-(7-fluoro-1H-indol-3-yl)-5-(trifluoromethyl)pyrimidin-2-yl)-N^1-methylbenzene-1,2,4-triamine] | 75.2 nM
CC(=O)Nc1cc(Nc2ncc(C(F)(F)F)c(-c3c[nH]c4c(F)cccc34)n2)c(F)cc1N(C)CCN(C)C [Compound 340, N-(2-((2-(dimethylamino)ethyl)(methyl)amino)-4-fluoro-5-((4-(7-fluoro-1H-indol-3-yl)-5-(trifluoromethyl)pyrimidin-2-yl)amino)phenyl)acetamide] | 57.4 nM
CC(=O)Nc1cc(Nc2ncc(C(F)(F)F)c(-c3c[nH]c4c(F)cccc34)n2)ccc1N(CCN(C)C)C(C)=O [Compound 341, N-(2-acetamido-4-((4-(7-fluoro-1H-indol-3-yl)-5-(trifluoromethyl)pyrimidin-2-yl)amino)phenyl)-N-(2-(dimethylamino)ethyl)acetamide] | 248 nM
